Data on four molecules can be found in publication PMC9238401, “Peptide Conjugates Derived from flg15, Pep13, and PIP1 That Are Active against Plant-Pathogenic Bacteria and Trigger Plant Defense Responses” (Applied and Environmental Microbiology, 2022).

Experiment [1] has as its system Xanthomonas arboricola pv. pruni CFBP5563. The experiment is described as follows: In vitro growth inhibition (MIC). The experiment is classed as cell-based. Particulars: TSB, 25°C, 48 h, OD 600 nm (Bioscreen C), three replicates, experiment repeated twice; MIC given as range. The method, boiled down: (§1)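 Strains were grown 24 h at 25°C on agar, then suspended in sterile water at 10^8 CFU mL^−1 and mixed with peptide dilutions in Trypticase soy broth. Plates were incubated at 25°C with shaking and OD600 read hourly for 48 h. MIC is the lowest concentration with no growth at 48 h.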

The test system of experiment [2] is Xanthomonas fragariae Xf349-9A. The experiment is described as follows: In vitro growth inhibition (MIC). The experiment is classed as cell-based. Particulars: TSB, 25°C, 48 h, OD 600 nm (Bioscreen C), three replicates, experiment repeated twice; MIC given as range. The gist of the method:
as §1

Experiment [3] relates to Erwinia amylovora PMV6076. The experiment is described as follows: In vitro growth inhibition (MIC). The experiment is classed as cell-based. The conditions noted are these: TSB, 25°C, 48 h, OD 600 nm (Bioscreen C), three replicates, experiment repeated twice; MIC = lowest concentration with no growth, given as range. The gist of the method: as §1
Experiment [4] deals with Pseudomonas syringae pv. syringae EPS94. The experiment is described as follows: In vitro growth inhibition (MIC). The experiment is classed as cell-based. Particulars: TSB, 25°C, 48 h, OD 600 nm (Bioscreen C), three replicates, experiment repeated twice; MIC given as range. The method, boiled down: as §1
The subject of experiment [5] is Pseudomonas syringae pv. actinidiae Psa3700.1.1. The experiment is described as follows: In vitro growth inhibition (MIC). The conditions noted are these: TSB, 25°C, 48 h, OD 600 nm (Bioscreen C), three replicates, experiment repeated twice; MIC given as range. Type of experiment: cell-based. The gist of the method:
as §1

Experiment [6] relates to Xanthomonas axonopodis pv. vesicatoria 2133-2. The conditions noted are these: TSB, 25°C, 48 h, OD 600 nm (Bioscreen C), three replicates, experiment repeated twice; MIC given as range. The method, boiled down: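 Bacteria grown 24 h (48 h for Xanthomonas axonopodis, X. fragariae) at 25°C, suspended at 10^8 CFU mL^−1, mixed with peptide dilutions in TSB.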
In experiment [7] the test system is X. axonopodis pv. vesicatoria strain 206 on tomato plants (cv. Rio grande). The experiment is described as follows: Bacterial spot of tomato, whole-plant infection assay. Type of experiment: in vivo. The conditions noted are these: peptide sprayed at 125 μM 24 h before inoculation with 10^8 CFU/mL, severity 13 days after inoculation, two independent experiments, three replicates of three plants, Tukey's test P < 0.05. As to the method: The effect of the peptide conjugates flg15-BP387, flg15-BP475, and PIP1-BP475 and the monomers flg15 and PIP1 to reduce bacterial spot infection, caused by X. axonopodis pv. vesicatoria, was tested in potted tomato plant assays (Fig. 4).
FIG 4 Effect of the peptides on the bacterial spot of tomato plant severity. Two independent experiments were performed. Disease severity was evaluated in tomato plants 13 days after pathogen inoculation. A nontreated control (NTC) and a treatment with copper oxychloride were included as references. Values correspond to the mean disease severity of three replicates of three plants per each treatment, and error bars represent the confidence interval (α = 0.05). […] The photographs show the symptoms observed in nontreated (A) and flg15-BP475-treated (B) plants.
The efficacy of peptides in bacterial spot of tomato suppression was determined using whole-plant infection assays with tomato plants (cv. Rio grande) inoculated with X. axonopodis pv. vesicatoria strain 206. Tomato plants (4 weeks old) were sprayed with a hand sprayer (Herkules; Nuair, Robassomero, Italy) with 6 mL of an aqueous suspension of flg15-BP387, flg15-BP475, PIP1-BP475, flg15, and PIP1 at 125 μM. An NTC was included by spraying plants with water. A treatment with 70% copper oxychloride at 2 g/L (Cuprocol; Syngenta, Spain) was also included as a positive control. After 24 h, treated plants were spray-inoculated until the runoff point (6 mL) with a suspension of X. axonopodis pv. vesicatoria at 10^8 CFU/mL mixed with diatomaceous earth at 1 mg/mL. Plants were incubated under controlled greenhouse conditions (25 ± 2°C, 16 h light; 15 ± 2°C, 8 h dark; 60% relative humidity). The experimental design consisted of three replicates of three plants per treatment. Two independent experiments were performed. Severity of infections was determined per each replicate after 13 days of pathogen inoculation ([71]). A severity index, ranging from 0 to 4 (0, no symptoms; 1, necrosis/lesions up to 25% of the leaf surface; 2, necrosis/lesions on 25 to 50% of the leaf surface; 3, severe necrosis/lesions on 50 to 75% of the leaf surface; and 4, severe necrosis/lesions on >75% of the leaf surface), was determined for each of the leaves (with 4 to 5 leaflets) of a plant, and it was used to calculate the disease severity index per plant according to the formula
where S is the severity of the infections per plant, Si is the severity index for each leaf, and n is the number of leaves measured, which is multiplied by the maximum severity index (i.e., 4). Then, the mean of the severity index of the three plants of each replicate was calculated. The effect of peptide treatments on plant material infection was determined using analysis of variance (ANOVA). […]

Entries after “also recorded” stand apart in the source; their conditions may differ. Non-standard residues stand in square brackets, D forms with d. Residues, ends and D or L forms follow the SMILES beside them. *: point of attachment. Butyryl = CCCC(=O)*

On to `CCCC(=O)NCCCC[C@H](NC(=O)[C@H](CCCCN)NC(=O)[C@H](CC(C)C)NC(=O)[C@@H](NC(=O)[C@H](CCCCN)NC(=O)[C@H](CCCCN)NC(=O)[C@@H](Cc1ccccc1)NC(=O)[C@H](CC(C)C)NC(=O)[C@H](CCCCN)NC(=O)[C@H](CCCCN)NC(=O)[C@H](C)NC(=O)[C@@H](NC(=O)[C@H](CCC(N)=O)NC(=O)[C@H](CC(C)C)NC(=O)CNC(=O)[C@H](C)NC(=O)[C@H](C)NC(=O)[C@H](CC(=O)O)NC(=O)[C@H](CC(=O)O)NC(=O)[C@H](CCCCN)NC(=O)[C@H](C)NC(=O)[C@H](CO)NC(=O)[C@H](CC(N)=O)NC(=O)[C@@H](NC(=O)[C@H](CCCNC(=N)N)NC(C)=O)[C@@H](C)CC)[C@@H](C)CC)[C@@H](C)CC)C(=O)N[C@@H](CC(C)C)C(N)=O` [flg15-BP475] (Ac-RINSAKDDAAGLQIAKKL[dF]KKILKK(Butyryl)L-NH2), for which the “MIC, Xap” value in experiment [1] was less than 0.8 µM. For the same molecule, in experiment [2], the “MIC, Xf” value lay within 6.2 to 12.5 µM. For the same molecule, the “MIC, Ea” value in experiment [3] fell in the range of 3.1 to 6.2 µM. The “MIC, Pss” value in experiment [4] was 12.5 to 25 µM. In addition, the “MIC, Psa” value in experiment [5] was 3.1 to 6.2 µM. Besides, the “MIC, Xav” value in experiment [6] is less than 0.8 µM. In experiment [7], the “Effect on severity of bacterial spot of tomato” value (“Effect on severity” below) is listed as “decreased the severity of the disease compared to treatment with flg15, this reduction being significant in one of the experiments; also recorded: showed the same or more efficacy in reducing disease infection than treatment with copper oxychloride”.

Turning to `CCCC(=O)NCCCC[C@H](NC(=O)[C@H](CCCCN)NC(=O)[C@H](CC(C)C)NC(=O)[C@@H](NC(=O)[C@H](CCCCN)NC(=O)[C@H](CCCCN)NC(=O)[C@@H](Cc1ccccc1)NC(=O)[C@H](CC(C)C)NC(=O)[C@H](CCCCN)NC(=O)[C@H](CCCCN)NC(=O)[C@H](Cc1c[nH]cn1)NC(=O)[C@@H](NC(=O)[C@H](Cc1c[nH]cn1)NC(=O)[C@@H](NC(=O)CNC(=O)[C@H](Cc1ccc(O)cc1)NC(C)=O)[C@@H](C)CC)[C@@H](C)O)[C@@H](C)CC)C(=O)N[C@@H](CC(C)C)C(N)=O` [PIP1-BP475] (Ac-YGIHTHKKL[dF]KKILKK(Butyryl)L-NH2), the “MIC, Xap” value in experiment [1] was less than 0.8 µM. In addition, the “MIC, Xf” value in experiment [2] lay within 12.5 to 25 µM. In experiment [3], the “MIC, Ea” value lay within 3.1 to 6.2 µM. Besides, the “MIC, Pss” value in experiment [4] fell in the range of 3.1 to 6.2 µM. The “MIC, Psa” value in experiment [5] lay in the range of 1.6 to 3.1 µM. Moreover, the “MIC, Xav” value in experiment [6] is less than 0.8 µM. In addition, the “Effect on severity” value in experiment [7] was “showed the same efficacy in reducing the disease as their respective monomers flg15 and PIP1, except for PIP1-BP475 in one of the experiments”.

On to “RINSAKDDAAGLQIA-OH [flg15, plant defense elicitor peptide, 15 amino acids of the N-terminal conserved domain of bacterial flagellin; monomer]”, for which, in experiment [1], the “MIC, Xap” value was more than 100 µM. In addition, the “MIC, Xf” value in experiment [2] is more than 100 µM. The “MIC, Ea” value in experiment [3] was more than 100 µM. In experiment [4], the “MIC, Pss” value was more than 100 µM. For the same molecule, in experiment [5], the “MIC, Psa” value was more than 100 µM. Besides, in experiment [6], the “MIC, Xav” value is more than 100 µM. Moreover, the “Effect on severity” value in experiment [7] is reported as “significantly reduced the severity of bacterial spot of tomato compared to the nontreated control in both experiments”.

As to “YGIHTH-NH2 [PIP1, plant defense elicitor peptide identified through combinatorial chemistry; monomer]”, the “MIC, Xap” value in experiment [1] was more than 50 µM. The “MIC, Xf” value in experiment [2] is more than 50 µM. Moreover, the “MIC, Ea” value in experiment [3] is more than 50 µM. In addition, the “MIC, Pss” value in experiment [4] is more than 50 µM. In experiment [5], the “MIC, Psa” value was more than 50 µM. For the same molecule, the “MIC, Xav” value in experiment [6] is more than 50 µM. In experiment [7], the “Effect on severity” value was “only reduced the severity of the disease in one of the experiments”.
